Test [1] has as its target T1, MAP kinase-activated protein kinase 5 (Homo sapiens, UniProt Q8IW41).
T1 sequence (Q8IW41 whole entry): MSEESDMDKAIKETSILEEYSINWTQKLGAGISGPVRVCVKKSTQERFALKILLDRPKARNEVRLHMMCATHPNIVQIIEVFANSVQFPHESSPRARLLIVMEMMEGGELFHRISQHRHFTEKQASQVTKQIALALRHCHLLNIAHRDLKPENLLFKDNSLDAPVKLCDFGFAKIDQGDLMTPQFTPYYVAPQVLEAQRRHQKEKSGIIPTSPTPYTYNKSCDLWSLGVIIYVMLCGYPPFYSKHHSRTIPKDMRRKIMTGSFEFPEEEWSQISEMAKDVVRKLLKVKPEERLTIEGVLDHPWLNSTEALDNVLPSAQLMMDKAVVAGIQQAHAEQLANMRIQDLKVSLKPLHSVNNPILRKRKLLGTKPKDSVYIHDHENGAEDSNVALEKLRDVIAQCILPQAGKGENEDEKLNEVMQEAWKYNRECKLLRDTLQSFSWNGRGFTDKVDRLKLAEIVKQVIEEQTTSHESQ
Put plainly: Inhibition of MAPKAPK5.

Test [2] addresses T1, MAP kinase-activated protein kinase 5. Nature of the test: Inhibition of MAPKAPK5 in synovial fibroblast from rheumatoid arthritis patient assessed as inhibition of TNF-alpha-induced MMP1 expression incubated for 30 mins prior to TNFalpha-challenge measured after 48 hrs by ELISA. On the technique in general: In an ELISA, binding on a coated surface is turned into a signal by an enzyme label.

Results on 10 compounds are retold here after ChEMBL document CHEMBL1955844, “Discovery of a series of imidazopyrazine small molecule inhibitors of the kinase MAPKAPK5, that show activity using in vitro and in vivo models of rheumatoid arthritis” (Bioorg Med Chem Lett, 2012).

Turning to `CN(c1ccc(N2CCOCC2)cc1)c1ncc(-c2cn[nH]c2)n2ccnc12`, in test [1], the IC50 (commonly the concentration needed to halve the response being measured) is more than 10 µM.

Regarding `c1cn2c(-c3c[nH]nn3)cnc(Nc3ccc(N4CCOCC4)cc3)c2n1`, the concentration for half-maximal inhibition (IC50) in test [2] is more than 10 µM; in test [1], 1.49 µM.

With `NS(=O)(=O)c1ccc(-c2cnc(Nc3ccc(N4CCOCC4)cc3)c3nccn23)cc1`, the IC50 in test [2] and in test [1] was more than 10 µM each time.

Take `NC(=O)c1ccc(-c2cnc(Nc3ccc(N4CCOCC4)cc3)c3nccn23)cc1F`: the values for the IC50 in test [2] and in test [1] were more than 10 µM and 2.39 µM, respectively.

The compound `CCOc1cc(-c2cnc(Nc3ccc(N4CCOCC4)cc3)c3nccn23)ccn1` yielded a 50% inhibitory concentration (IC50) in test [1] of more than 10 µM.

Compound `CN(C)c1cc(-c2cnc(Nc3ccc(N4CCOCC4)cc3)c3nccn23)ccn1` had an IC50 in test [1] of more than 10 µM.

As to `NC(=O)c1cnc(-c2cnc(Nc3ccc(N4CCOCC4)cc3)c3nccn23)s1`, the IC50 in test [2] was more than 10 µM; in test [1], 2.82 µM.

As for `NC(=O)c1ncc(-c2cnc(Nc3ccc(N4CCOCC4)cc3)c3nccn23)s1`, the IC50 in test [2] was more than 10 µM; in test [1], 3.2 µM.

`c1cn2c(-c3ccc4[nH]ccc4c3)cnc(Nc3ccc(N4CCOCC4)cc3)c2n1`: the IC50 in test [1] is more than 10 µM.

Turning to `CN1CCN(c2ccc(Nc3ncc(-c4cc[nH]c(=O)c4)n4ncnc34)cc2)CC1`, in test [1], the IC50 amounted to 3.73 µM.
